PubChem BioAssay AID330 (DTP/NCI, 2004)
Values joined by “and” are separate entries in the source; they are usually repeats but may differ in a detail not shown here. Identical values can stand only once. Toxic doses and inconclusive results are not listed.

Tested on: P388 leukemia ip, CD2F1 mice, survival T/C
Assay: NCI In Vivo Anticancer Drug Screen. Data for tumor model P388 Leukemia (intraperitoneal) in CD2F1 (CDF1) mice
Conditions: higher = longer survival
Summary of the method: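 Mice carrying the transplanted tumor received test compound or vehicle. Survival was recorded in each group, and the value is the treated-group measurement divided by that of the vehicle-treated control group.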

[1] = endpoint: median survival time, dose: 12.5 mg/kg/injection, schedule: Q01DX009 (ip), vehicle: water
[2] = endpoint: median survival time, dose: 50.0 mg/kg/injection, schedule: Q01DX009 (ip), vehicle: water
[3] = endpoint: median survival time, dose: 100.0 mg/kg/injection, schedule: Q01DX009 (ip), vehicle: water
[4] = endpoint: median survival time, dose: 50.0 mg/kg/injection, schedule: Q01DX005 (ip), vehicle: saline with Tween-80
[5] = endpoint: median survival time, dose: 100.0 mg/kg/injection, schedule: Q01DX005 (ip), vehicle: saline with Tween-80
[6] = endpoint: median survival time, dose: 50.0 mg/kg/injection, schedule: Q01DX009 (ip), vehicle: Klucel (hydroxypropylcellulose) (HPC)
[7] = endpoint: median survival time, dose: 100.0 mg/kg/injection, schedule: Q01DX009 (ip), vehicle: Klucel (hydroxypropylcellulose) (HPC)
[8] = endpoint: median survival time, dose: 200.0 mg/kg/injection, schedule: Q01DX009 (ip), vehicle: Klucel (hydroxypropylcellulose) (HPC)
[9] = endpoint: median survival time, dose: 50.0 mg/kg/injection, schedule: Q01DX009 (ip), vehicle: saline
[10] = endpoint: median survival time, dose: 100.0 mg/kg/injection, schedule: Q01DX009 (ip), vehicle: saline
[11] = endpoint: median survival time, dose: 200.0 mg/kg/injection, schedule: Q01DX009 (ip), vehicle: saline
[12] = endpoint: median survival time, dose: 50.0 mg/kg/injection, schedule: Q01DX005 (ip), vehicle: saline
[13] = endpoint: median survival time, dose: 100.0 mg/kg/injection, schedule: Q01DX005 (ip), vehicle: saline
[14] = endpoint: median survival time, dose: 200.0 mg/kg/injection, schedule: Q01DX005 (ip), vehicle: saline
[15] = endpoint: median survival time, dose: 60.0 mg/kg/injection, schedule: Q01DX005 (ip), vehicle: saline with Tween-80
[16] = endpoint: median survival time, dose: 120.0 mg/kg/injection, schedule: Q01DX005 (ip), vehicle: saline with Tween-80
[17] = endpoint: median survival time, dose: 200.0 mg/kg/injection, schedule: Q01DX005 (ip), vehicle: saline with Tween-80

With C=C1C(=O)O[C@@H]2CCC[C@H]12 the T/C [1] was 105 % of control, the T/C (endpoint: median survival time, dose: 25.0 mg/kg/injection, schedule: Q01DX009 (ip), vehicle: water) was 112 % of control and the T/C [2] was 112 % of control. The T/C [3] was 108 % of control and the T/C (endpoint: median survival time, dose: 200.0 mg/kg/injection, schedule: Q01DX009 (ip), vehicle: water) was 112 % of control.

O=C1/C(=C\O)C2CCC3CCC4CC1C342 (configuration not stated) was tested, and the T/C (endpoint: median survival time, dose: 25.0 mg/kg/injection, schedule: Q01DX005 (ip), vehicle: Klucel (hydroxypropylcellulose) (HPC)) was 103 % of control, the T/C (endpoint: median survival time, dose: 50.0 mg/kg/injection, schedule: Q01DX005 (ip), vehicle: Klucel (hydroxypropylcellulose) (HPC)) was 97 % of control and the T/C (endpoint: median survival time, dose: 100.0 mg/kg/injection, schedule: Q01DX005 (ip), vehicle: Klucel (hydroxypropylcellulose) (HPC)) was 107 % of control.

For CC(C)=CCc1c(C)c(O)c(C)c(C)c1O, the T/C (endpoint: median survival time, dose: 12.5 mg/kg/injection, schedule: Q01DX009 (ip), vehicle: distilled water + Tween-80 + alcohol) was 100 % of control, the T/C (endpoint: median survival time, dose: 25.0 mg/kg/injection, schedule: Q01DX009 (ip), vehicle: distilled water + Tween-80 + alcohol) was 92 % of control and the T/C (endpoint: median survival time, dose: 50.0 mg/kg/injection, schedule: Q01DX009 (ip), vehicle: distilled water + Tween-80 + alcohol) was 100 % of control. For the same molecule, the T/C (endpoint: median survival time, dose: 100.0 mg/kg/injection, schedule: Q01DX009 (ip), vehicle: distilled water + Tween-80 + alcohol) was 95 % of control and the T/C (endpoint: median survival time, dose: 200.0 mg/kg/injection, schedule: Q01DX009 (ip), vehicle: distilled water + Tween-80 + alcohol) was 104 % of control.

With CCN(CC)CCNC1CC(C)CC(C)(C)C1 (configuration not stated) the T/C [4] was 103 % of control and the T/C [5] was 101 % of control.

CCN(CC)c1ccc(N=C(NC#N)SC)cc1 was tested, and the T/C [6] was 104 % of control, the T/C [7] was 103 % of control and the T/C [8] was 106 % of control.

For COc1cc(C)c(S(C)=O)cc1OC (configuration not stated), the T/C [9] was 98 % of control, the T/C [10] was 90 % of control and the T/C [11] was 98 % of control.

For CC(=O)NC1C(Nc2ccc(S(=O)(=O)Nc3nccc(C)n3)cc2)OC(CO)C(O)C1O (configuration not stated), the T/C [12] was 100 % of control, the T/C [13] was 105 % of control and the T/C [14] was 92 % of control.

In the case of NC1CCCCCC1, the T/C [12] is reported as 110 % of control and the T/C [13] is reported as 86 % of control.

With CCCCS(=O)(=O)N/N=C/C(=O)O the T/C (endpoint: median survival time, dose: 6.25 mg/kg/injection, schedule: Q01DX009 (ip), vehicle: water) was 119 % of control, the T/C [1] was 124 % of control and the T/C [2] was 162 % of control. For the same molecule, the T/C [3] was 173 % of control.

In the case of C=COC(=O)N(C)C, the T/C (endpoint: median survival time, dose: 25.0 mg/kg/injection, schedule: Q01DX009 (ip), vehicle: saline) is reported as 110 % of control, the T/C [9] is reported as 118 % of control and the T/C [10] is reported as 115 % of control. The T/C [11] was 120 % of control.

For O=S(=O)(O)c1ccc(-c2ccc(S(=O)(=O)O)cc2)cc1 (tested in a mixture with another compound), the T/C (endpoint: mean survival time, dose: 20.0 mg/kg/injection, schedule: Q01DX009 (ip), vehicle: saline) was 253 % of control, the T/C (endpoint: mean survival time, dose: 40.0 mg/kg/injection, schedule: Q01DX009 (ip), vehicle: saline) was 232 % of control and the T/C (endpoint: median survival time, dose: 12.5 mg/kg/injection, schedule: Q01DX009 (ip), vehicle: saline sonified) was 154 % of control. The T/C (endpoint: median survival time, dose: 20.0 mg/kg/injection, schedule: Q01DX009 (ip), vehicle: saline) was 231 % of control, the T/C (endpoint: median survival time, dose: 25.0 mg/kg/injection, schedule: Q01DX009 (ip), vehicle: saline sonified) was 150 % of control and the T/C (endpoint: median survival time, dose: 33.0 mg/kg/injection, schedule: Q04DX003 (ip), vehicle: saline) was 165 % of control. For the same molecule, the T/C (endpoint: median survival time, dose: 40.0 mg/kg/injection, schedule: Q01DX009 (ip), vehicle: saline) was 272 % of control, the T/C (endpoint: median survival time, dose: 50.0 mg/kg/injection, schedule: Q01DX009 (ip), vehicle: saline sonified) was 272 % of control and the T/C (endpoint: median survival time, dose: 50.0 mg/kg/injection, schedule: Q04DX003 (ip), vehicle: saline sonified) was 181 % of control. The T/C (endpoint: median survival time, dose: 50.0 mg/kg/injection, schedule: Q04DX003 (ip), vehicle: saline) was 169 % of control and the T/C (endpoint: median survival time, dose: 75.0 mg/kg/injection, schedule: Q04DX003 (ip), vehicle: saline) was 221 % of control.

For COc1cc(/C=N/O)c(SC)cc1OC, the T/C (endpoint: median survival time, dose: 100.0 mg/kg/injection, schedule: Q04DX002 (ip), vehicle: Klucel (hydroxypropylcellulose) (HPC)) was 110 % of control and the T/C (endpoint: median survival time, dose: 200.0 mg/kg/injection, schedule: Q04DX002 (ip), vehicle: Klucel (hydroxypropylcellulose) (HPC)) was 111 % of control.

With CCCCCCCCCCCC[S][Sn]([CH2]CCC)([S]CCCCCCCCCCCC)[S]CCCCCCCCCCCC the T/C [9] was 87 % of control, the T/C [10] was 99 % of control and the T/C [11] was 95 % of control.

With Cc1nn(C(=O)c2ccccn2)c(-c2ccccc2)c1N=Nc1ccc(S(=O)(=O)Nc2ncccn2)cc1 the T/C [15] was 102 % of control and the T/C [16] was 100 % of control.

Cc1cc2[nH]c3c(C#N)c(OC(=O)N(C)C)c(-c4ccccc4)c(=O)n3c2cc1C was tested, and the T/C [15] was 97 % of control, the T/C [16] was 90 % of control and the T/C (endpoint: median survival time, dose: 240.0 mg/kg/injection, schedule: Q01DX005 (ip), vehicle: saline with Tween-80) was 92 % of control.

For O=C(OC1CC2CCCCC2CC1(O)c1ccccc1)c1cccc(Cl)c1 (configuration not stated), the T/C (endpoint: median survival time, dose: 100.0 mg/kg/injection, schedule: Q01DX001 (ip), vehicle: acetone) was 99 % of control, the T/C (endpoint: median survival time, dose: 200.0 mg/kg/injection, schedule: Q01DX001 (ip), vehicle: acetone) was 103 % of control and the T/C (endpoint: median survival time, dose: 400.0 mg/kg/injection, schedule: Q01DX001 (ip), vehicle: acetone) was 104 % of control.

In the case of CNc1ncnc2ccc(Cl)cc12, the T/C [6] is reported as 93 % of control and the T/C [7] is reported as 102 % of control.

In the case of O=c1c(-c2ccc(O)cc2)coc2c(C3OC(CO)C(O)C(O)C3O)c(O)ccc12 (configuration not stated), the T/C [4] is reported as 104 % of control, the T/C [5] is reported as 101 % of control and the T/C [17] is reported as 93 % of control.

With O=S(=O)(Nc1ccccn1)c1ccc(NC2OC(CO)C(O)C(O)C2O)cc1 (configuration not stated) the T/C [12] was 103 % of control, the T/C [13] was 98 % of control and the T/C [14] was 103 % of control.

For COc1cc2c(c(OC)c1O)-c1ccc(OC)c(=O)cc1[C@@H](NC(=O)C(F)(F)F)CC2, the T/C (endpoint: median survival time, dose: 2.5 mg/kg/injection, schedule: Q01DX009 (ip), vehicle: Klucel (hydroxypropylcellulose) (HPC)) was 157 % of control, the T/C (endpoint: median survival time, dose: 5.0 mg/kg/injection, schedule: Q01DX005 (ip), vehicle: Klucel (hydroxypropylcellulose) (HPC)) was 155 % of control and the T/C (endpoint: median survival time, dose: 5.0 mg/kg/injection, schedule: Q01DX009 (ip), vehicle: Klucel (hydroxypropylcellulose) (HPC)) was 159 % of control and 163 % of control. The T/C (endpoint: median survival time, dose: 10.0 mg/kg/injection, schedule: Q01DX005 (ip), vehicle: Klucel (hydroxypropylcellulose) (HPC)) was 155 % of control and the T/C (endpoint: median survival time, dose: 10.0 mg/kg/injection, schedule: Q01DX009 (ip), vehicle: Klucel (hydroxypropylcellulose) (HPC)) was 182 % of control.

With Cc1ccc(C)n1-c1ccsc1C(=O)NNC(=O)C(Cl)Cl the T/C (endpoint: median survival time, dose: 7.5 mg/kg/injection, schedule: Q01DX005 (ip), vehicle: Klucel (hydroxypropylcellulose) (HPC)) was 100 % of control, the T/C (endpoint: median survival time, dose: 15.0 mg/kg/injection, schedule: Q01DX005 (ip), vehicle: Klucel (hydroxypropylcellulose) (HPC)) was 106 % of control and the T/C (endpoint: median survival time, dose: 30.0 mg/kg/injection, schedule: Q01DX005 (ip), vehicle: Klucel (hydroxypropylcellulose) (HPC)) was 99 % of control.

With O=C(Nc1ccccc1)C1(C(=O)Nc2ccccc2)SSC(C(=O)Nc2ccccc2)(C(=O)Nc2ccccc2)SS1 the T/C [4] was 107 % of control, the T/C [5] was 96 % of control and the T/C [17] was 89 % of control.

In the case of O=C1C(Cl)=C(NCCO)C(=O)c2ccccc21, the T/C (endpoint: median survival time, dose: 25.0 mg/kg/injection, schedule: Q01DX009 (ip), vehicle: Klucel (hydroxypropylcellulose) (HPC)) is reported as 101 % of control, the T/C [6] is reported as 106 % of control and the T/C [7] is reported as 112 % of control. For the same molecule, the T/C [8] was 102 % of control.

For CN(C)C1CS(=O)(=O)OC2=C1CCc1c2ccn1C (configuration not stated), the T/C (endpoint: median survival time, dose: 60.0 mg/kg/injection, schedule: Q01DX005 (ip), vehicle: Klucel (hydroxypropylcellulose) (HPC)) was 96 % of control, the T/C (endpoint: median survival time, dose: 120.0 mg/kg/injection, schedule: Q01DX005 (ip), vehicle: Klucel (hydroxypropylcellulose) (HPC)) was 98 % of control and the T/C (endpoint: median survival time, dose: 240.0 mg/kg/injection, schedule: Q01DX005 (ip), vehicle: Klucel (hydroxypropylcellulose) (HPC)) was 96 % of control.

For CCCCCn1c(CN2CCCCC2)nc2c1-c1ccccc1C(=O)C2=O, the T/C (endpoint: median survival time, dose: 50.0 mg/kg/injection, schedule: Q01DX001 (ip), vehicle: saline with Tween-80) was 100 % of control, the T/C (endpoint: median survival time, dose: 100.0 mg/kg/injection, schedule: Q01DX001 (ip), vehicle: saline with Tween-80) was 100 % of control and the T/C (endpoint: median survival time, dose: 200.0 mg/kg/injection, schedule: Q01DX001 (ip), vehicle: saline with Tween-80) was 100 % of control.
